The values that follow are results of earlier work, collected in patent US20060051490A1, “Food component and processes for the preparation thereof” (priority 2003, published 2006).

For the data set the following is noted: for solubility in 100 parts of water: in 100 parts of water at room temperature, approximate.

Regarding `CC(=O)O` [Acetic acid, acetic acid], the miscibility with water entry was “miscible with water in all proportions”.
Turning to `O=C(O)/C=C/C(=O)O` [fumaric, fumaric acid], the “solubility in 100 parts of water” value is on record as around 1.5 parts.
Turning to `CC(O)C(=O)O` (stereo not shown) [lactic acid], the miscibility with water entry is recorded as “miscible with water in all proportions”.
For `O=C(O)CC(O)C(=O)O` (stereo not shown) [malic, malic acid], the “solubility in 100 parts of water” value is recorded as around 150 parts.
